Data from patent US4528392A, “Aromatic compounds as antiallergic agents” (American Home Products Corporation, priority 1984, dated 1985).

Assays:
[1] = system: synthesis of LTB4 by rat glycogen-elicited polymorphonuclear leukocytes (lipoxygenase); assay: inhibition of LTB4 (5,12-diHETE) synthesis by rat glycogen-elicited polymorphonuclear leukocytes; assay type: cell-based, rat (female Wistar); conditions: Leukocyte, read-out: 50% Inhibitory Concentration (IC50) LTB4; rat peritoneal PMN, A23187 10 μM, [14C]arachidonic acid, 10 min preincubation at 37° C.
Description: (§1) Roy. […] Med., 74, 831 (1981)]. […] The assay is carried out as follows: Peritoneal PMN are obtained from female Wistar rats (150-250 g) that received an i.p. injection of 6% glycogen (10 ml). After 24 hours, rats are killed by CO2 asphyxiation and peritoneal cells are harvested by peritoneal lavage using Ca^++ and Mg^++ free Hanks' balanced salt solution (HBSS). The peritoneal exudate is centrifuged at 400 g for 10 minutes. […] To 1 ml portions of cell suspension, test drugs or vehicle are added and incubated at 37° C. for 10 minutes. […] The reaction is stopped by the addition of ice cold water (3 ml) and acidifying to pH 3.5. Lipoxygenase products are then extracted twice into diethyl ether.

[2] = system: synthesis of 5-HETE by rat glycogen-elicited polymorphonuclear leukocytes (lipoxygenase); assay: inhibition of 5-HETE synthesis by rat glycogen-elicited polymorphonuclear leukocytes; assay type: cell-based, rat (female Wistar); conditions: Leukocyte, read-out: 50% Inhibitory Concentration (IC50) 5-HETE; rat peritoneal PMN, A23187 10 μM, [14C]arachidonic acid, 10 min preincubation at 37° C.
Description: as §1

[3] = system: ovalbumin induced bronchospasm mediated by endogenous products of the lipoxygenase oxidation of arachidonic acid; assay: in vivo inhibition of ovalbumin induced bronchospasm in guinea pigs by endogenous mediators; design: species or system guinea pig (male Hartley); conditions: 50 mg/kg intraduodenal, 10 minutes before ovalbumin challenge, indomethacin and chlorpheniramine pretreated
Description: The assay of this Example measures the in vivo ability of the compounds of the invention to inhibit the bronchospasm induced in guinea pigs by endogenous mediators of the bronchoconstriction.
The assay is carried out as follows:
Male Hartley strain guinea pigs weighing 350-600 g are sensitized to ovalbumin (OA) (5 mg i.p. and 5 mg s.c.) on day 0. Three to five weeks later, the animals are anesthetized with pentobarbital sodium (50 mg/kg, i.p.). The jugular vein is cannulated for injection of drugs and the carotid artery for monitoring blood pressure. The trachea is cannulated for artificial ventilation by miniature Staring pump and for indirect measurement of respiratory volume changes as described, infra. Additional pentobarbital sodium (15 mg/kg, i.v.) is administered to arrest spontaneous respiration. A cyclooxygenase inhibitor, indomethacin (10 mg/kg in tris buffer, i.v. at 9 min.) is administered to shunt arachidonic metabolism to lipoxygenase pathways. One minute later, chlorpheniramine (1.0 mg/kg in saline, i.v.) is given to attenuate the histaminic component of anaphylactic bronchoconstriction. Test drugs are administered either intravenously, intraduodenally or by aerosol at 2 or 10 minutes before antigen challenge. Anaphylactic bronchoconstriction is induced by administration of aerosolized OA (1%). Aerosols of OA or soluble drug are produced in-line for 10 seconds only by actuation of an ultrasonic nebulizer (Monaghan). Aerosolized drug dosage is expressed in terms of solution concentration and by a fixed aerosol exposure time (approximately10 seconds). Control animals receive saline in place of drug.
(§2) Respiratory volume changes are determined by a calibrated piston whose travel is recorded, via a linear transducer, on a Beckman Dynograph recorder. Maximal bronchoconstrictor volume is determined by clamping off the trachea at the end of the experiment. Overflow volumes at minutes 1, 3 and 5 are obtained from the recorded charts.
The overflow volume at 1, 3 and 5 minutes is expressed as a percentage of maximal bronchoconstriction. Combined group values are used from each of these time intervals to determine the inhibitory effect of drugs. [formula] Students t-test for unpaired data is used to determine statistical significance. Dose response curves are generated and ED50 doses are interpolated from the regression lines.
The results for three compounds of the invention, with administration of the compounds at 10 minutes before ovalbumin challenge are presented below: […]

[4] = system: LTD4 induced bronchoconstriction; assay: in vivo inhibition of bronchospasm induced in guinea pigs by exogenously administered leukotriene (LTD4); design: species or system guinea pig (male Hartley); conditions: 50 mg/kg intraduodenal, 10 minutes before induction of bronchospasm by LTD4
Description: The assay of this Example measures the in vivo ability of the compounds of the invention to inhibit the bronchospasm induced in guinea pigs by the exogenously administered leukotrienes C4 and/or D4. This assay is essentially a measure of the SRS-A antagonist properties of the compounds tested.
This assay is carried out as follows:
Male Hartley strain guinea pigs (350-600 g) are anesthetized with pentobarbital sodium (50 mg/kg, i.p.). The jugular vein is cannulated for injection of drugs and the carotid artery for monitoring blood pressure. The trachea is cannulated for artificial ventilation by a miniature Starling pump and for indirect measurement of respiratory volume changes as described infra. Additional pentobarbital sodium (15 mg/kg, i.v.) is administered to arrest spontaneous respiration. Submaximal bronchoconstrictor responses are established in control animals by varying the dose-levels of leukotriene. Intravenous dose-levels for LTC4 range from 1 to 2 μg/kg and for LTD4 the range is from 0.3 to 1 μg/kg. The aerosol bronchoprovocation dose for LTC4 is generated from 1.6 μM solution and for LTD4 from a 2.0 μM solution.
Test drugs are administered either intravenously, intraduodenally, by aerosol or orally at 1 or 10 minutes before induction of bronchospasm by administration of either LTC4 or LTD4 at the predetermined dose-levels. Aerosols of soluble drugs or leukotrienes are produced in-line for 10 seconds only by actuation of an ultrasonic nebulizer (Monaghan). Aerosolized drug dosage is expressed in terms of solution concentration and by a fixed aerosol exposure time (approximately 10 seconds). Control animals receive saline in place of drug.
as §2, with “at” for “at minutes”, “5 minutes” for “5”
The overflow volume at 1, 3 and 5 minutes is expressed as a percentage of maximal bronchoconstriction. […]

SMILES	IC50 [1] [µM]	IC50 [2] [µM]	% Inhibition Overflow Volume at 1 min. [3] [%]	% Inhibition Overflow Volume at 3 min. [3] [%]	% Inhibition Overflow Volume at 5 min. [3] [%]	% Inhibition Overflow Volume at 1 min. ([4]; 1 min.) [%]	% Inhibition Overflow Volume at 3 min. ([4]; 3 min.) [%]	% Inhibition Overflow Volume at 5 min. ([4]; 5 min.) [%]
NC1=NN(c2cccc(C(F)(F)F)c2)CC1 [BW755C, reference compound]	30	43						
COC(=O)CC(=O)Nc1cccc(COc2ccc(C(C)=O)c(O)c2)c1 [Example 1, 3-[[3-[(4-acetyl-3-hydroxyphenoxy)methyl]phenyl]amino]-3-oxopropanoic acid, methyl ester]	11.7	14.2	99	77	63	25	48	56
COC(=O)CCC(=O)Nc1cccc(COc2ccc(C(C)=O)c(O)c2)c1 [Example 2, 4-[[3-[(4-acetyl-3-hydroxyphenoxy)methyl]phenyl]amino]-4-oxobutanoic acid, methyl ester]			93	24	35			
COC(=O)CC(=O)Nc1cccc(COc2ccc(C(C)=O)c(OC)c2)c1 [Example 4, 3-[[3-[(4-acetyl-3-methoxyphenoxy)methyl]phenyl]amino]-3-oxopropanoic acid, methyl ester]			88	67	46			
CCc1ccc(OCc2cccc(NC(=O)CCC(=O)OC)c2)cc1OC [Example 7, 4-[[3-[(4-ethyl-3-methoxyphenoxy)methyl]phenyl]amino]-4-oxobutanoic acid, methyl ester]	7.09	5.6						

The next lines start with results.

IC50 [1] [µM]	IC50 [2] [µM]	SMILES	% Inhibition Overflow Volume at 1 min. [3] [%]	% Inhibition Overflow Volume at 3 min. [3] [%]	% Inhibition Overflow Volume at 5 min. [3] [%]	% Inhibition Overflow Volume at 1 min. ([4]; 1 min.) [%]	% Inhibition Overflow Volume at 3 min. ([4]; 3 min.) [%]	% Inhibition Overflow Volume at 5 min. ([4]; 5 min.) [%]
3.87	3.71	CCCCCC(=O)c1ccc(OCc2cccc(NC(=O)CCC(=O)OC)c2)cc1OC [Example 6c, 4-[[3-[[3-methoxy-4-(1-oxohexyl)phenoxy]methyl]phenyl]amino]-4-oxobutanoicacid, methyl ester]						
1.7	1.59	CCCCCCc1ccc(OCc2cccc(NC(=O)CC(=O)OC)c2)cc1OC [Example 8b, 3-[[3-[(4-hexyl-3-methoxyphenoxy)methyl]phenyl]amino]-3-oxopropanoic acid, methyl ester]						
